Patent publication US6410790B1, “3-amin3-arylpropan-1-ol compounds, their preparation and use” (priority 1999, dated 2002)

Key:
[1] = system: binding site 2 of the sodium channel; test: BTX binding, sodium channel; details: rat cerebral cortex synaptosomes; for BTX Binding at 10 μM: percentage inhibition, [3H]-batrachotoxin A20 α-benzoate 10 nM
Procedure: Binding Investigations in the Sodium Channel
Binding Site 2 (BTX Binding)
The binding site 2 of the sodium channel is the so-called batrachotoxin (BTX) binding site. [^3H]-batrachlotoxin A20 α-benzoate (10 nM in the assay) was used as ligand. These ion channel particles (synaptosomes) were concentrated from rat cerebral cortex according to the procedure of Gray and Whittaker (E. G. Gray and V. P. Whittaker (1962) J. Anat. 76, 79-88). The radioactivity that is measured in the presence of veratridine (0.3 mM in the assay) is defined as non-specific binding. The material was incubated at 37° C. for 120 minutes. The assay conditions are carried out according to the protocol published by Pauwels, Leysen and Laduron (P. J. Pauwels, J. E. Leysen and P. M. Laduron (1986) Eur. J. Pharmacol. 124, 291-298).
(N=3, i.e. mean values±SEM from 3 independent series of experiments that were carried out in the form of triple parallel experiments).
(§1) For this purpose IC50 values are obtained, which can be converted to inhibitor constants (Ki) according to the “Cheng-Prusoff equation” (Y. C. Clieng and W. H. Prusoff (1973) Biochem. Pharmacol. 22, 3099-3108). The IC50 values were obtained by means of the computer program “Figure P” (version 6.0, Biosoft, Cambridge, England). Km values were calculated according to Lineweaver and Burk (H. Lineweaver and D. Burk (1934) J. Am. Chem. Soc. 56, 658-666). The “Ligand” computer program (version 4, Biosoft, England) was used to obtain Ken values.

[2] = system: benzothiazepine binding site of the L-type calcium channel; test: Diltiazem binding, L calcium channel; set-up: species or system rat; details: for Diltiazem Binding at 10 μM: percentage inhibition, [3H]-cis-(+)-diltiazem 5 nM, rat cerebral cortex membranes
Procedure: Binding Investigations in the L Calcium Channel
Benzothiazepine Binding Site (Diltiazem Binding)
The biological membrane material was isolated from the rat cerebral cortex. [^3H]-cis-(+)-diltiazem (5 nM in the assay) was used as ligand. The material was incubated for 20 minutes at 25° C. The radioactivity that is measured in the presence of (±)-diltiazem (10^−6 M in the assay) is defined as non-specific binding. After completion of incubation the non-bound fraction of the radioactive ligand is separated by means of a filtration process using Whatman Glasfiber GF/B membranes. The membranes are washed and the radioactivity is then measured using a β-counter. The method is based on the details published by Schoemaker and Langer (H. Schoemaker and S. Z. Langer (1985) Eur. J. Pharmacol. 111, 273-277).
as §1

[3] = system: phenylquinone-induced writhing reaction; test: phenylquinone-induced writhing test in mice; format: in vivo; details: male NMRI mice, phenylquinone i.p. 10 minutes later; for inhibition in vivo at 10 mg/kg: Mus musculus, iv, 10 min, 10 mg/kg intravenously
Procedure: Analgesic Effect in the Writhing Test in Mice
The analgesic effect was investigated in the phenylquinone-induced writhing test in mice (as modified by I. C. Hendershot and J. Forsaith (1959) J. Pharmacol. Exp. Ther. 125, 237-240). Male NMRI mice weighing 25 to 30 g were used for the test. Groups of 10 animals each received by intraperitoineal application, for each substance dose, 0.3 ml/mouse of a 0.02% aqueous solution of phenylquinone (phenylbenzoquinone, Sigma Company, Deisenhofen; solution prepared with addition of 5% of ethanol and kept in a water bath at 45° C.) 10 minutes after intravenous administration of the test substances. The animals were placed individually in observation cages. The number of pain-induced stretching movements (so-called writhing reactions=straightening of the body together with stretching of the rear extremities) was measured by means of a push-button counter 5 to 20 minutes after administration of the phenylquinone. Animals that had received only physiological saline solution served as controls. All substances were tested in the standard dose of 10 mg/kg. The percentage inhibition (% inhibition) of the writhing reaction produced by a substance was calculated according to the following formula: [formula]

NA transporter = molecular target: T1, NA transporter (Rattus norvegicus, UniProt Q63380); test: synaptosomal noradrenaline uptake inhibition (NA uptake inhibition); format: biochemical; details: for NA Uptake Inhibition at 1 μM: 1 μM in the assay, synaptosomes from rat hypothalamus; for inhibition at 1 µM: read-out: NA Uptake Inhibition at 1 μM, 1 μM in the assay, synaptosomes from rat hypothalamus
T1 construct: synaptosomes are isolated fresh from rat brains; from tissue; host or cells: rat hypothalamus synaptosomes (P2 fraction)
T1 sequence (Q63380 1-617): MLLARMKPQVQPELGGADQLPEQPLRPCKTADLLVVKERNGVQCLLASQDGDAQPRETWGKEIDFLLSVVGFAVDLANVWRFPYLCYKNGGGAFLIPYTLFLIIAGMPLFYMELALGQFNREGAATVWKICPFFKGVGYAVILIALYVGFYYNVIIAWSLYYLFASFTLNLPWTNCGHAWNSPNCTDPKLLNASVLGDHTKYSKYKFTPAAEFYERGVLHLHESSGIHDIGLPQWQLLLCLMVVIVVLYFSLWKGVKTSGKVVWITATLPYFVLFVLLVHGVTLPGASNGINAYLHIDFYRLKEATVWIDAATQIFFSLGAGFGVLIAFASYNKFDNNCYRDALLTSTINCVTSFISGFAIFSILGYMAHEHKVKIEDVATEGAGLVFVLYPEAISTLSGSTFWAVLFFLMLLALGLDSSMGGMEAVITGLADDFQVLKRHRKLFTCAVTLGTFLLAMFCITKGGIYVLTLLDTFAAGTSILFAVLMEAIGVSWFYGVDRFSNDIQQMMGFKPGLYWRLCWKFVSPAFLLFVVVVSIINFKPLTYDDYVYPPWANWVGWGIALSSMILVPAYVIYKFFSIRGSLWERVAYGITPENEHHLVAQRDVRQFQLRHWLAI
Procedure: In order to carry out these in vitro studies, synaptosomes are isolated fresh from rat brains. In each case a so-called “P2” fraction is used, which is prepared according to the protocol of Gray and Whittaker (E. G. Gray and V. P. Whittaker (1962) J. Anat. 76, 79-88).
(in each case N=4, i.e. mean values±SEM from 4 independent series of experiments that were carried out in the form of triple parallel experiments).
as §1

| Molecule | BTX Binding at 10 μM [1] [%] | Diltiazem Binding at 10 μM [2] [%] | % Inhibition of the writhing reaction at 10 mg/kg intravenously [3] [%] | NA Uptake Inhibition at 1 μM (NA transporter) [%] | inhibition in vivo at 10 mg/kg [3] [%] | inhibition at 1 µM (NA transporter) [%] | Kd ([1]; radioligand, N=3, mean±SEM, read-out: KD value for this binding site) [nM] | Kd ([2]; radioligand, rat cerebral cortex, N=3, mean±SEM, read-out: KD value for this high-affinity binding site) [nM] |
| --- | --- | --- | --- | --- | --- | --- | --- | --- |
| COc1cccc(C(C2CCCCC2(O)c2cccc(Cl)c2)N(C)C)c1.Cl (centres unmarked) [Example 9] | 89 | 91 | 73 | 62 |  |  |  |  |
| COc1cccc(CC2(O)CCCCC2C(c2ccccc2)N(C)C)c1.Cl (centres unmarked) [Example 13, 2-(dimethylaminophenylmethyl)-1-(3-methoxybenzyl)cyclohexanol, hydrochloride] | 94 | 88 |  |  | 100 | 95 |  |  |
| CN(C)C(c1ccccc1)C1CCCCC1(O)c1ccc(O)cc1.Cl (centres unmarked) [Example 20, 4-[2-(dimethylaminophenylmethyl)-1-hydroxycyclohexyl]phenol, hydrochloride] | 68 | 69 |  |  | 96 | 68 |  |  |
| CN(C)C(c1ccccc1)C1CCCCC1(O)Cc1ccc(Cl)cc1.Cl (centres unmarked) [Example 23, 1-(4-chlorobenzyl)-2-(dimethylaminophenylmethyl)-1-cyclohexanol, hydrochloride] | 94 | 100 |  |  | 100 | 99 |  |  |
| CN(C)C(c1ccccc1)C1CCCCC1(O)Cc1ccccc1F.Cl (centres unmarked) [Example 24, 2-(dimethylaminophenylmethyl)-1-(2-fluorobenzyl)cyclohexanol, hydrochloride] | 92 | 93 |  |  | 97 | 98 |  |  |
| CN(C)C(c1ccccc1)C1CCCCC1(O)Cc1ccc(F)cc1.Cl (centres unmarked) [Example 25, 2-(dimethylaminophenylmethyl)-1-(4-fluorobenzyl)cyclohexanol, hydrochloride] | 91 | 85 |  |  | 100 | 98 |  |  |
| COc1ccc(OC)c(C2(O)CCCCC2C(c2ccccc2)N(C)C)c1.Cl (centres unmarked) [Example 26, 1-(2,5-dimethoxyphenyl)-2-(dimethylaminophenylmethyl)cyclohexanol, hydrochloride] | 85 | 87 |  |  | 94 | 5 |  |  |
| CN(C)C(c1ccccc1)C1CCCCC1(O)Cc1ccc(F)cc1Cl.Cl (centres unmarked) [Example 27, 1-(2-chloro-4-fluorobenzyl)-2-(dimethylaminophenylmethyl)cyclohexanol, hydrochloride] | 97 | 96 |  |  | 82 | 89 |  |  |
| CN(C)C(c1ccccc1)C1CCCCC1(O)Cc1ccccc1Cl.Cl (centres unmarked) [Example 30, 1-(2-chlorobenzyl)-2-(dimethylaminophenylmetlhyl)cyclohexanol, hydrochloride] | 96 | 98 | 85 | 98 |  |  |  |  |
| COc1cccc(C(C2CCCCC2(O)c2ccc3c(c2)OCO3)N(C)C)c1.Cl (centres unmarked) [Example 31, 1-benzo[1,3]dioxol-5-yl-2-[dimethylamino-(3-methoxyphenyl)methyl]cyclohexanol, hydrochloride] | 85 | 90 |  |  | 76 | 43 |  |  |
| CN(C)C(c1ccccc1)C1CCCCC1(O)Cc1cccc(Cl)c1.Cl (centres unmarked) [Example 32, 1-(3-chlorobenzyl)-2-(dimethylaminophenylmethyl)cyclohexanol, hydrochloride] | 94 | 98 |  |  | 100 | 100 |  |  |
| CN(C)C(c1ccccc1)C1CCCCC1(O)Cc1ccc(Cl)cc1Cl.Cl (centres unmarked) [Example 33, 1-(2,4-dichlorobenzyl)-2-(dimethylaminophenylmethyl)cyclohexanol, hydrochloride] | 98 | 86 |  |  | 84 | 83 |  |  |
| CN(C)C(c1ccccc1)(c1cccc(Oc2ccccc2)c1)C1CCCCC1(O)Cc1ccccc1.Cl (centres unmarked) [Example 34, 1-benzyl-2-[dimethylaminophenyl-(3-phenoxyphenyl)methyl]cyclohexanol, hydrochloride] | 100 | 100 |  |  | 99 | 96 |  |  |
| COc1cccc(C(c2ccccc2)(C2CCCCC2(O)Cc2ccccc2)N(C)C)c1.Cl (centres unmarked) [Example 35, 1-benzyl-2-[dimethylaminophenyl-(3-methoxyphenyl)methyl]cyclohexanol, hydrochloride] | 92 | 87 |  |  | 81 | 100 |  |  |
| CN(C)C(c1ccccc1)C1CCCCC1(O)Cc1cccc(C(F)(F)F)c1.Cl (centres unmarked) [Example 36, 2-(dimethylaminophenylmethyl)-1-(3-trifluoromethylbenzyl)cyclohexanol, hydrochloride] | 98 |  |  |  | 100 | 91 |  |  |
| COc1cccc(CC2(O)CCCCC2C(c2cccc(OC)c2)N(C)C)c1.Cl (centres unmarked) [Example 37, 2-(dimethylamino-(3-methoxyphenyl)methyl]-1-(3-methoxybenzyl)cyclohexanol, hydrochloride] | 90 | 94 |  |  | 93 | 100 |  |  |
| CN(C)C(c1ccccc1Cl)C1CCCCC1(O)c1ccc2ccccc2c1.Cl (centres unmarked) [Example 38, 2-[(2-chlorophenyl)dimethylaminomethyl]-1-naphthalene-2-ylcyclohexanol, hydrochloride] | 97 | 67 |  |  | 85 | 17 |  |  |
| CN(C)C(c1ccc(Cl)c(Cl)c1)C1CCCCC1(O)Cc1ccccc1.Cl (centres unmarked) [Example 39, 1-benzyl-2-[(3,4-dichlorophenyl)dimethylaminomethyl]cyclohexanol, hydrochloride] | 97 | 76 |  |  | 94 | 61 |  |  |
| CN(C)C(c1ccc(Cl)c(Cl)c1)C1CCCCC1(O)CCc1ccccc1.Cl (centres unmarked) [Example 40, 2-[(3,4-dichlorophenyl)dimethylaminomethyl]-1-phenethylcyclohexanol, hydrochloride] | 98 | 86 |  |  | 72 | 58 |  |  |
| [^3H]-batrachlotoxin A20 α-benzoate [reference compound] |  |  |  |  |  |  | 24.6 ± 1.56 |  |
| [^3H]-cis-(+)-diltiazem [reference compound] |  |  |  |  |  |  |  | 4.1 ± 0.75 |
